Source: the supplement of paper PMC10307832

Legend:
Assay in all cases: relative viability (nuclei count vs DMSO), 5 days (fraction); higher = more cells survive
NCI-H2085 = tested on: NCI-H2085
Summary of the method: (§1)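 Values are medians from duplicate plates. Each reflects relative viability, defined as the nuclei count of treated wells over that of vehicle wells. Lung cancer cell lines in 1536-well plates were pin-tool dosed one day after seeding with one drug alone or with a fixed anchor-drug dose plus five library-drug doses (not always all listed) in √10 steps, then fixed, stained and imaged at 4× after 5 days.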

NCI-H2126 = tested on: NCI-H2126
Summary of the method: as §1

NCI-H1993 = tested on: NCI-H1993
Summary of the method: as §1

NCI-H2023 = tested on: NCI-H2023
Summary of the method: as §1

PC-14 = tested on: PC-14
Summary of the method: as §1

NCI-H1650 = tested on: NCI-H1650
Summary of the method: as §1

NCI-H358 = tested on: NCI-H358
Summary of the method: as §1

BEN = tested on: BEN
Summary of the method: as §1

H3255 = tested on: H3255
Summary of the method: as §1

NCI-H2347 = tested on: NCI-H2347
Summary of the method: as §1

LXF-289 = tested on: LXF-289
Summary of the method: as §1

NCI-H647 = tested on: NCI-H647
Summary of the method: as §1

NCI-H2342 = tested on: NCI-H2342
Summary of the method: as §1

NCI-H2009 = tested on: NCI-H2009
Summary of the method: as §1

NCI-H1563 = tested on: NCI-H1563
Summary of the method: as §1

NCI-H322M = tested on: NCI-H322M
Summary of the method: as §1

EMC-BAC-2 = tested on: EMC-BAC-2
Summary of the method: as §1

LCLC-97TM1 = tested on: LCLC-97TM1
Summary of the method: as §1

NCI-H1915 = tested on: NCI-H1915
Summary of the method: as §1

HOP-62 = tested on: HOP-62
Summary of the method: as §1

SW 1573 = tested on: SW 1573
Summary of the method: as §1

SK-LU-1 = tested on: SK-LU-1
Summary of the method: as §1

NCI-H661 = tested on: NCI-H661
Summary of the method: as §1

Clc1ccc(Nc2nnc(Cc3ccncc3)c3ccccc23)cc1 [Vatalanib] + Nc1nc2[nH]cc(CCc3ccc(C(=O)N[C@@H](CCC(=O)O)C(=O)O)cc3)c2c(=O)[nH]1 [Pemetrexed] (partner 0.2 µM)
relative viability (NCI-H2085; first compound 0.04 µM): 0.844 | relative viability (NCI-H2085; first compound 0.1265 µM): 0.842 | relative viability (NCI-H2085; first compound 0.4 µM): 0.976 | relative viability (NCI-H2085; first compound 1.265 µM): 0.892 | relative viability (NCI-H2085; first compound 4 µM): 0.821 | relative viability (NCI-H2126; first compound 0.04 µM): 0.68 | relative viability (NCI-H2126; first compound 0.1265 µM): 0.668 | relative viability (NCI-H2126; first compound 0.4 µM): 0.731 | relative viability (NCI-H2126; first compound 1.265 µM): 0.592 | relative viability (NCI-H2126; first compound 4 µM): 0.602 | relative viability (NCI-H1993; first compound 0.04 µM): 0.581 | relative viability (NCI-H1993; first compound 0.1265 µM): 0.644 | relative viability (NCI-H1993; first compound 0.4 µM): 0.619 | relative viability (NCI-H1993; first compound 1.265 µM): 0.501 | relative viability (NCI-H1993; first compound 4 µM): 0.619 | relative viability (NCI-H2023; first compound 0.04 µM): 0.263 | relative viability (NCI-H2023; first compound 0.1265 µM): 0.21 | relative viability (NCI-H2023; first compound 0.4 µM): 0.215 | relative viability (NCI-H2023; first compound 1.265 µM): 0.242 | relative viability (NCI-H2023; first compound 4 µM): 0.202 | relative viability (PC-14; first compound 0.04 µM): 0.135 | relative viability (PC-14; first compound 0.1265 µM): 0.125 | relative viability (PC-14; first compound 0.4 µM): 0.125 | relative viability (PC-14; first compound 1.265 µM): 0.129 | relative viability (PC-14; first compound 4 µM): 0.129 | relative viability (NCI-H1650; first compound 0.04 µM): 0.359 | relative viability (NCI-H1650; first compound 0.1265 µM): 0.305 | relative viability (NCI-H1650; first compound 0.4 µM): 0.323 | relative viability (NCI-H1650; first compound 1.265 µM): 0.388 | relative viability (NCI-H1650; first compound 4 µM): 0.388 | relative viability (NCI-H358; first compound 0.04 µM): 0.158 | relative viability (NCI-H358; first compound 0.1265 µM): 0.149 | relative viability (NCI-H358; first compound 0.4 µM): 0.16 | relative viability (NCI-H358; first compound 1.265 µM): 0.181 | relative viability (NCI-H358; first compound 4 µM): 0.157 | relative viability (BEN; first compound 0.04 µM): 0.662 | relative viability (BEN; first compound 0.1265 µM): 0.659 | relative viability (BEN; first compound 0.4 µM): 0.443 | relative viability (BEN; first compound 1.265 µM): 0.681 | relative viability (BEN; first compound 4 µM): 0.743 | relative viability (H3255; first compound 0.04 µM): 0.543 | relative viability (H3255; first compound 0.1265 µM): 0.536 | relative viability (H3255; first compound 0.4 µM): 0.529 | relative viability (H3255; first compound 1.265 µM): 0.512 | relative viability (H3255; first compound 4 µM): 0.523 | relative viability (NCI-H2347; first compound 0.04 µM): 0.444 | relative viability (NCI-H2347; first compound 0.1265 µM): 0.419 | relative viability (NCI-H2347; first compound 0.4 µM): 0.43 | relative viability (NCI-H2347; first compound 1.265 µM): 0.487 | relative viability (NCI-H2347; first compound 4 µM): 0.41 | relative viability (LXF-289; first compound 0.04 µM): 0.887 | relative viability (LXF-289; first compound 0.1265 µM): 0.879 | relative viability (LXF-289; first compound 0.4 µM): 0.955 | relative viability (LXF-289; first compound 1.265 µM): 0.908 | relative viability (LXF-289; first compound 4 µM): 0.822 | relative viability (NCI-H647; first compound 0.04 µM): 0.192 | relative viability (NCI-H647; first compound 0.1265 µM): 0.163 | relative viability (NCI-H647; first compound 0.4 µM): 0.163 | relative viability (NCI-H647; first compound 1.265 µM): 0.187 | relative viability (NCI-H647; first compound 4 µM): 0.19 | relative viability (NCI-H2342; first compound 0.04 µM): 0.726 | relative viability (NCI-H2342; first compound 0.1265 µM): 0.701 | relative viability (NCI-H2342; first compound 0.4 µM): 0.669 | relative viability (NCI-H2342; first compound 1.265 µM): 0.769 | relative viability (NCI-H2342; first compound 4 µM): 0.773 | relative viability (NCI-H2009; first compound 0.04 µM): 0.975 | relative viability (NCI-H2009; first compound 0.1265 µM): 0.971 | relative viability (NCI-H2009; first compound 0.4 µM): 1.09 | relative viability (NCI-H2009; first compound 1.265 µM): 1.01 | relative viability (NCI-H2009; first compound 4 µM): 0.974 | relative viability (NCI-H1563; first compound 0.04 µM): 0.804 | relative viability (NCI-H1563; first compound 0.1265 µM): 0.772 | relative viability (NCI-H1563; first compound 0.4 µM): 0.857 | relative viability (NCI-H1563; first compound 1.265 µM): 0.758 | relative viability (NCI-H1563; first compound 4 µM): 0.77 | relative viability (NCI-H322M; first compound 0.04 µM): 0.609 | relative viability (NCI-H322M; first compound 0.1265 µM): 0.656 | relative viability (NCI-H322M; first compound 0.4 µM): 0.678 | relative viability (NCI-H322M; first compound 4 µM): 0.572 | relative viability (EMC-BAC-2; first compound 0.04 µM): 0.452 | relative viability (EMC-BAC-2; first compound 0.1265 µM): 0.427 | relative viability (EMC-BAC-2; first compound 0.4 µM): 0.456 | relative viability (EMC-BAC-2; first compound 4 µM): 0.463 | relative viability (LCLC-97TM1; first compound 0.04 µM): 0.2 | relative viability (LCLC-97TM1; first compound 0.1265 µM): 0.177 | relative viability (LCLC-97TM1; first compound 0.4 µM): 0.177 | relative viability (LCLC-97TM1; first compound 1.265 µM): 0.149 | relative viability (LCLC-97TM1; first compound 4 µM): 0.172 | relative viability (NCI-H1915; first compound 0.04 µM): 0.505 | relative viability (NCI-H1915; first compound 0.1265 µM): 0.558 | relative viability (NCI-H1915; first compound 0.4 µM): 0.53 | relative viability (NCI-H1915; first compound 1.265 µM): 0.477 | relative viability (NCI-H1915; first compound 4 µM): 0.498 | relative viability (HOP-62; first compound 0.04 µM): 0.273 | relative viability (HOP-62; first compound 0.1265 µM): 0.336 | relative viability (HOP-62; first compound 0.4 µM): 0.277 | relative viability (HOP-62; first compound 1.265 µM): 0.275 | relative viability (HOP-62; first compound 4 µM): 0.349 | relative viability (SW 1573; first compound 0.1265 µM): 0.72 | relative viability (SW 1573; first compound 0.4 µM): 0.975 | relative viability (SW 1573; first compound 1.265 µM): 0.771 | relative viability (SW 1573; first compound 4 µM): 0.794 | relative viability (SK-LU-1; first compound 0.04 µM): 0.966 | relative viability (SK-LU-1; first compound 0.1265 µM): 0.881 | relative viability (SK-LU-1; first compound 0.4 µM): 1.14 | relative viability (SK-LU-1; first compound 1.265 µM): 0.901 | relative viability (SK-LU-1; first compound 4 µM): 0.928 | relative viability (NCI-H661; first compound 0.04 µM): 0.868 | relative viability (NCI-H661; first compound 0.1265 µM): 0.906 | relative viability (NCI-H661; first compound 0.4 µM): 0.996 | relative viability (NCI-H661; first compound 1.265 µM): 0.905 | relative viability (NCI-H661; first compound 4 µM): 0.936
